Assay results: PubChem BioAssay (NCI)
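Assay format: 96-well plates, 48-hour exposure. Abbreviation: GI50, concentration required for 50% inhibition of growth. Definition used: TGI = concentration required for complete inhibition of growth.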

Legend:
Test in all cases: growth of human tumour cells (NCI), 48 h
MOLT-4 leukemia = tested on: MOLT-4 leukemia
NCI-H226 lung = tested on: NCI-H226 lung
NCI-H23 lung = tested on: NCI-H23 lung
NCI-H460 lung = tested on: NCI-H460 lung
OVCAR-3 ovarian = tested on: OVCAR-3 ovarian
SK-OV-3 ovarian = tested on: SK-OV-3 ovarian
SNB-19 CNS = tested on: SNB-19 CNS
SR leukemia = tested on: SR leukemia
TK-10 renal = tested on: TK-10 renal
UACC-62 melanoma = tested on: UACC-62 melanoma

## CC/C=C\C[C@H]1C/C=C2/C(=O)C=C[C@H]2C/C=C\CCCC(=O)O1
MOLT-4 leukemia
  GI50: 1.84 µM
  TGI: 25.1 µM
NCI-H226 lung
  GI50: 3.4 µM
  TGI: 10.8 µM
NCI-H23 lung
  GI50: 2.15 µM
  TGI: 9.92 µM
NCI-H460 lung
  GI50: 2.92 µM
  TGI: 14.5 µM
OVCAR-3 ovarian
  GI50: 1.65 µM
  TGI: 5.94 µM
SK-OV-3 ovarian
  GI50: 5.67 µM
  TGI: 13.1 µM
SNB-19 CNS
  GI50: 5.17 µM
  TGI: 11.2 µM
SR leukemia
  GI50: 1.34 µM
  TGI: 21.8 µM
TK-10 renal
  GI50: 2.54 µM
  TGI: 8.01 µM
UACC-62 melanoma
  GI50: 1.78 µM
  TGI: 7.94 µM

## CCCCCCCCCCC(=O)CCCCCCC(=O)O
MOLT-4 leukemia
  TGI: 36.8 µM
NCI-H226 lung
  TGI: > 100 µM
NCI-H23 lung
  TGI: 98.4 µM
NCI-H460 lung
  TGI: 30.9 µM
OVCAR-3 ovarian
  TGI: 40 µM
SK-OV-3 ovarian
  TGI: > 100 µM
SNB-19 CNS
  TGI: > 100 µM
SR leukemia
  TGI: 44.2 µM
TK-10 renal
  TGI: > 100 µM
UACC-62 melanoma
  TGI: 35.5 µM

## CCOC(=O)C1(CC(=O)O)CCCC1=O (stereo not given)
MOLT-4 leukemia
  TGI: > 100 µM
NCI-H226 lung
  TGI: > 100 µM
NCI-H23 lung
  TGI: > 100 µM
NCI-H460 lung
  TGI: > 100 µM
OVCAR-3 ovarian
  TGI: > 100 µM
SK-OV-3 ovarian
  TGI: > 100 µM
SNB-19 CNS
  TGI: > 100 µM
SR leukemia
  TGI: > 100 µM
TK-10 renal
  TGI: > 100 µM
UACC-62 melanoma
  TGI: > 100 µM

## C/C(=N\Nc1ccccc1)c1sc(-c2nc(C)c(/C(C)=N/Nc3ccccc3)s2)nc1C
MOLT-4 leukemia
  TGI: > 100 µM
NCI-H226 lung
  TGI: > 95.7 µM
NCI-H23 lung
  TGI: > 100 µM
NCI-H460 lung
  TGI: > 100 µM
OVCAR-3 ovarian
  TGI: 59.9 µM
SK-OV-3 ovarian
  TGI: > 100 µM
SNB-19 CNS
  TGI: > 100 µM
SR leukemia
  TGI: > 100 µM
TK-10 renal
  TGI: > 100 µM
UACC-62 melanoma
  TGI: 13.6 µM

## NC(N)=NN=c1c(=O)c2ccccc2c1=O
MOLT-4 leukemia
  GI50: 1.46 µM
  TGI: 3.82 µM
NCI-H226 lung
  GI50: 14.8 µM
  TGI: 28.1 µM
NCI-H23 lung
  GI50: 1.79 µM
  TGI: 3.94 µM
NCI-H460 lung
  GI50: 2.92 µM
  TGI: 7.14 µM
OVCAR-3 ovarian
  GI50: 13 µM
  TGI: 26.4 µM
SK-OV-3 ovarian
  GI50: 19.6 µM
  TGI: 33.8 µM
SNB-19 CNS
  GI50: 1.72 µM
  TGI: 3.25 µM
SR leukemia
  GI50: 2.4 µM
  TGI: 5.92 µM
TK-10 renal
  GI50: 22.6 µM
  TGI: 37.4 µM
UACC-62 melanoma
  GI50: 12.7 µM
  TGI: 25.8 µM

## O=C(COc1ccc(/C=C2\Oc3ccc4ccccc4c3C2=O)cc1)c1ccc([N+](=O)[O-])cc1
MOLT-4 leukemia
  GI50: 1.87 µM
  TGI: 5.56 µM
NCI-H226 lung
  GI50: 16.7 µM
  TGI: 39.1 µM
NCI-H23 lung
  GI50: 12.5 µM
  TGI: 29.4 µM
NCI-H460 lung
  GI50: 16.5 µM
  TGI: 40.2 µM
OVCAR-3 ovarian
  GI50: 4.59 µM
  TGI: 17.4 µM
SK-OV-3 ovarian
  GI50: 24.2 µM
  TGI: 73.7 µM
SNB-19 CNS
  GI50: 15.6 µM
  TGI: 35.6 µM
SR leukemia
  GI50: 0.0291 µM
  TGI: 1.84 µM
TK-10 renal
  GI50: 16.6 µM
  TGI: 49.3 µM
UACC-62 melanoma
  GI50: 11.9 µM
  TGI: 25.9 µM

## O=c1cc(-c2ccc(Cl)cc2)[nH]c2ccccc12
MOLT-4 leukemia
  GI50: 46.8 µM
  TGI: > 100 µM
NCI-H226 lung
  GI50: > 100 µM
  TGI: > 100 µM
NCI-H23 lung
  GI50: 63 µM
  TGI: > 100 µM
NCI-H460 lung
  GI50: 39.6 µM
  TGI: > 100 µM
OVCAR-3 ovarian
  GI50: 31.2 µM
  TGI: > 100 µM
SK-OV-3 ovarian
  GI50: 44.8 µM
  TGI: > 100 µM
SNB-19 CNS
  GI50: 95.3 µM
  TGI: > 100 µM
SR leukemia
  GI50: 4.76 µM
  TGI: > 100 µM
TK-10 renal
  GI50: > 100 µM
  TGI: > 100 µM
UACC-62 melanoma
  GI50: 37.4 µM
  TGI: > 100 µM

## Nc1cn(C2OC(CC(c3ccccc3)(c3ccccc3)c3ccccc3)C(O)C2O)c(=O)[nH]c1=O (stereo not given)
MOLT-4 leukemia
  TGI: 63.4 µM
NCI-H226 lung
  TGI: > 100 µM
NCI-H23 lung
  TGI: 65.8 µM
NCI-H460 lung
  TGI: 39.5 µM
OVCAR-3 ovarian
  TGI: 37.9 µM
SK-OV-3 ovarian
  TGI: 98.2 µM
SNB-19 CNS
  TGI: > 100 µM
SR leukemia
  TGI: 39.9 µM
TK-10 renal
  TGI: 96.2 µM
UACC-62 melanoma
  TGI: 28.5 µM

## Cc1ccccc1/C=C/c1csnn1
MOLT-4 leukemia
  TGI: > 100 µM
NCI-H226 lung
  TGI: > 100 µM
NCI-H23 lung
  TGI: > 100 µM
NCI-H460 lung
  TGI: > 75.6 µM
OVCAR-3 ovarian
  TGI: > 100 µM
SK-OV-3 ovarian
  TGI: > 100 µM
SNB-19 CNS
  TGI: > 100 µM
SR leukemia
  TGI: > 100 µM
TK-10 renal
  TGI: > 100 µM
UACC-62 melanoma
  TGI: > 100 µM

## O/N=C1/CCCC/C1=C/C=C/c1ccccc1
MOLT-4 leukemia
  TGI: 67.1 µM
NCI-H226 lung
  TGI: 60.7 µM
NCI-H23 lung
  TGI: 60.5 µM
NCI-H460 lung
  TGI: 53.8 µM
OVCAR-3 ovarian
  TGI: 35.2 µM
SK-OV-3 ovarian
  TGI: > 100 µM
SNB-19 CNS
  TGI: > 100 µM
SR leukemia
  TGI: > 100 µM
TK-10 renal
  TGI: 62 µM
UACC-62 melanoma
  TGI: 40.8 µM

## CN(C)c1ccc(C(=S)c2ccc(N(C)C)cc2)cc1
MOLT-4 leukemia
  GI50: 6.35 µM
  TGI: > 100 µM
NCI-H226 lung
  GI50: 22.2 µM
  TGI: > 100 µM
NCI-H23 lung
  GI50: 7.28 µM
  TGI: > 100 µM
NCI-H460 lung
  GI50: 3.97 µM
  TGI: > 100 µM
OVCAR-3 ovarian
  GI50: 3.93 µM
  TGI: > 100 µM
SK-OV-3 ovarian
  GI50: 10.9 µM
  TGI: > 100 µM
SNB-19 CNS
  GI50: 6.16 µM
  TGI: > 100 µM
SR leukemia
  GI50: 3.75 µM
  TGI: 92.6 µM
TK-10 renal
  GI50: 13.8 µM
  TGI: > 100 µM
UACC-62 melanoma
  GI50: 4.47 µM
  TGI: > 100 µM

## CCOC(=O)/C(=C/CC/C(C)=C/CC/C(C)=C/CCc1ccoc1)CC(=O)N1CCCCC1
MOLT-4 leukemia
  GI50: 4.03 µM
  TGI: 9.67 µM
NCI-H226 lung
  GI50: 4.48 µM
  TGI: 19.4 µM
NCI-H23 lung
  GI50: 3.12 µM
  TGI: 15.1 µM
NCI-H460 lung
  GI50: 1.82 µM
  TGI: 3.7 µM
OVCAR-3 ovarian
  GI50: 3.44 µM
  TGI: 12.3 µM
SK-OV-3 ovarian
  GI50: 8.27 µM
  TGI: 36.1 µM
SNB-19 CNS
  GI50: 4.05 µM
  TGI: 41.3 µM
SR leukemia
  GI50: 3.11 µM
  TGI: 16 µM
TK-10 renal
  GI50: 5.66 µM
  TGI: 75.5 µM
UACC-62 melanoma
  GI50: 2.8 µM
  TGI: 12.7 µM
